This is an account of results in patent US8044079B2, “Substituted oxindole derivatives, medicaments containing said derivatives and use thereof” (Abbott GmbH & Co. KG, priority 2005, dated 2011).

The target in this experiment is T1, human vasopressin V1b receptor (Homo sapiens, UniProt P47901).
T1 construct: expressed in transfected cells; host or cells: CHO-K1 (cell line hV1b_3H2_CHO), membrane preparation
T1 sequence (P47901 1-424): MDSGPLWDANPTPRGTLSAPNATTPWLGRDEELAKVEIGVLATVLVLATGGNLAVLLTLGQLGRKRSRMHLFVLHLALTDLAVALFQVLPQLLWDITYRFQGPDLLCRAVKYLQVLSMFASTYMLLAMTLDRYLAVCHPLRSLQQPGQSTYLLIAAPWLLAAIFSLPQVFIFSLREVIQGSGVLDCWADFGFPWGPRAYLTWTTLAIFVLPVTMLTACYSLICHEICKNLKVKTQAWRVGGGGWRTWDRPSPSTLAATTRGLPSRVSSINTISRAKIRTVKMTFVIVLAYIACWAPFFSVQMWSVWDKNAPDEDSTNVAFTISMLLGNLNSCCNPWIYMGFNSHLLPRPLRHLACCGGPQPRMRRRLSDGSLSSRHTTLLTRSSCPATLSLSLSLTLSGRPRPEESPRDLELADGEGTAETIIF
The experiment is described as follows: Vasopressin V1b receptor binding test. The following applies: membranes of CHO-K1 cells with human V1b receptor, displacement of 1.5 nM 3H-AVP; for compounds with more than one stereogenic center the diastereomer with greater affinity. Here is the method: Vasopressin V1b Receptor Binding Test:
The test substances were dissolved at a concentration of 10^−2 M in DMSO, and were further diluted to 5×10^−4 M to 5×10^−9 M in DMSO. This DMSO predilution series was diluted 1:10 with test buffer. In the test assay the substance concentration was further diluted to 1:5 (2% DMSO in the assay).
The membrane pellet was homogenized again as described and centrifuged, and was then taken up in 50 mM tris-HCl at pH 7.4, homogenized, and frozen in aliquots at −190° C. and stored in liquid nitrogen.
The incubation buffer was 50 mM tris, 10 mM MgCl2, and 0.1% BSA at pH 7.4. […] The nonspecific binding was determined using 1 μM AVP (Bachem #H1780). All determinations were performed in triplicate. After incubation (60 minutes at room temperature), the free radioligand was filtered off by vacuum filtration (Skatron 7000 cell harvester) through Wathman GF/B fiberglass filter mats, and the filters were transferred to scintillation vessels. The liquid scintillation measurement was conducted in a Model 2000 or 2200CA TriCarb unit (Packard). The measured cpm was converted to dpm using a standard quench series.
The binding parameters were calculated by nonlinear regression in SAS.
The affinities of the compounds according to the invention for human vasopressin receptor V1b were measured according to the above test, and the affinity constants (Ki) were determined.

“5-Chloro-1-(4-cyanobenzenesulfonyl)-3-{4-[(2-hydroxyethylamino)methyl]-2-methoxyphenyl}-3-((2S,4R)-4-hydroxy-2-oxazol-2-yl-pyrrolidin-1-yl)-2,3-dihydroindol-2-one [Example 196]”: the Ki was 10 to 100 nM.

Regarding `COc1ccc(S(=O)(=O)N2C(=O)C(c3cc(CN4CCN(C)CC4)ccc3OC)(N3CCC[C@H]3c3ncco3)c3cc(Cl)ccc32)cc1` (single isomer, unassigned) [Example 1], the Ki was less than 10 nM.

In turn, `COc1ccc(S(=O)(=O)N2C(=O)C(c3cc(CN4CCC4)ccc3OC)(N3CCC[C@H]3c3ncco3)c3cc(Cl)ccc32)cc1` (single isomer, unassigned) [Example 12] had a Ki of less than 10 nM.

In turn, `COc1ccc(S(=O)(=O)N2C(=O)C(c3cc(CN4CCN(C)CC4)ccc3OC)(N3C[C@H](O)C[C@H]3c3ncco3)c3cc(C#N)ccc32)cc1` (single isomer, unassigned) [Example 149] displayed a Ki of less than 10 nM.

The molecule `COc1ccc(S(=O)(=O)N2C(=O)C(c3cc(CO)ccc3OC)(N3CCC[C@H]3c3ncco3)c3cc(Cl)ccc32)cc1` (stereo partly drawn) [Example 2, 5-Chloro-3-(5-hydroxymethyl-2-methoxyphenyl)-1-(4-methoxybenzenesulfonyl)-3-((S)-2-oxazol-2-yl-pyrrolidin-1-yl)-1,3-dihydroindol-2-one] displayed an inhibitory constant (Ki) of 10 to 100 nM.

`CNCc1ccc(OC)c(C2(N3CCC[C@H]3c3ncco3)C(=O)N(S(=O)(=O)c3ccc(OC)cc3)c3ccc(Cl)cc32)c1` (stereo partly drawn) [Example 3, 5-Chloro-1-(4-methoxybenzenesulfonyl)-3-(2-methoxy-5-methylaminomethylphenyl)-3-((S)-2-oxazol-2-yl-pyrrolidin-1-yl)-1,3-dihydroindol-2-one]: the Ki is less than 10 nM.

For the molecule `COc1ccc(S(=O)(=O)N2C(=O)C(c3cc(CN(C)C)ccc3OC)(N3CCC[C@H]3c3ncco3)c3cc(Cl)ccc32)cc1` (stereo partly drawn) [Example 4, 5-Chloro-3-(5-dimethylaminomethyl-2-methoxyphenyl)-1-(4-methoxybenzenesulfonyl)-3-((S)-2-oxazol-2-yl-pyrrolidin-1-yl)-1,3-dihydroindol-2-one], the inhibition constant (Ki) is less than 10 nM.

The molecule `CCNCc1ccc(OC)c(C2(N3CCC[C@H]3c3ncco3)C(=O)N(S(=O)(=O)c3ccc(OC)cc3)c3ccc(Cl)cc32)c1` (stereo partly drawn) [Example 5, 5-Chloro-3-(5-ethylaminomethyl-2-methoxyphenyl)-1-(4-methoxybenzenesulfonyl)-3-((S)-2-oxazol-2-yl-pyrrolidin-1-yl)-1,3-dihydroindol-2-one] yielded a Ki of less than 10 nM.

Consider `CCN(C)Cc1ccc(OC)c(C2(N3CCC[C@H]3c3ncco3)C(=O)N(S(=O)(=O)c3ccc(OC)cc3)c3ccc(Cl)cc32)c1` (stereo partly drawn) [Example 6, 5-Chloro-3-{5-[(ethylmethylamino)methyl]-2-methoxyphenyl}-1-(4-methoxybenzenesulfonyl)-3-((S)-2-oxazol-2-yl-pyrrolidin-1-yl)-1,3-dihydroindol-2-one], for which the inhibitory constant (Ki) was less than 10 nM.

Molecule `CCN(CC)Cc1ccc(OC)c(C2(N3CCC[C@H]3c3ncco3)C(=O)N(S(=O)(=O)c3ccc(OC)cc3)c3ccc(Cl)cc32)c1` (stereo partly drawn) [Example 7, 5-Chloro-3-(5-diethylaminomethyl-2-methoxyphenyl)-1-(4-methoxybenzenesulfonyl)-3-((S)-2-oxazol-2-yl-pyrrolidin-1-yl)-1,3-dihydroindol-2-one] returned a Ki of less than 10 nM.

The molecule `COc1ccc(S(=O)(=O)N2C(=O)C(c3cc(CNC(C)C)ccc3OC)(N3CCC[C@H]3c3ncco3)c3cc(Cl)ccc32)cc1` (stereo partly drawn) [Example 8, 5-Chloro-3-[5-(isopropylaminomethyl)-2-methoxyphenyl]-1-(4-methoxybenzenesulfonyl)-3-((S)-2-oxazol-2-yl-pyrrolidin-1-yl)-1,3-dihydroindol-2-one] had a Ki of less than 10 nM.

Regarding `COc1ccc(S(=O)(=O)N2C(=O)C(c3cc(CN(C)C(C)C)ccc3OC)(N3CCC[C@H]3c3ncco3)c3cc(Cl)ccc32)cc1` (stereo partly drawn) [Example 9, 5-Chloro-3-{5-[(isopropylmethylamino)methyl]-2-methoxyphenyl}-1-(4-methoxybenzenesulfonyl)-3-((S)-2-oxazol-2-yl-pyrrolidin-1-yl)-1,3-dihydroindol-2-one], the Ki was less than 10 nM.

As for `COc1ccc(S(=O)(=O)N2C(=O)C(c3cc(CNCCO)ccc3OC)(N3CCC[C@H]3c3ncco3)c3cc(Cl)ccc32)cc1` (stereo partly drawn) [Example 10, 5-Chloro-3-{5-[(2-hydroxyethylamino)methyl]-2-methoxyphenyl}-1-(4-methoxybenzenesulfonyl)-3-((S)-2-oxazol-2-yl-pyrrolidin-1-yl)-1,3-dihydroindol-2-one], the Ki was less than 10 nM.

`COc1ccc(S(=O)(=O)N2C(=O)C(c3cc(CN4CCNCC4)ccc3OC)(N3CCC[C@H]3c3ncco3)c3cc(Cl)ccc32)cc1` (stereo partly drawn) [Example 11, 5-Chloro-1-(4-methoxybenzenesulfonyl)-3-(2-methoxy-5-piperazin-1-ylmethylphenyl)-3-((S)-2-oxazol-2-yl-pyrrolidin-1-yl)-1,3-dihydroindol-2-one] registered a Ki of less than 10 nM.

Turning to `COc1ccc(S(=O)(=O)N2C(=O)C(c3cc(CN4CCCC4)ccc3OC)(N3CCC[C@H]3c3ncco3)c3cc(Cl)ccc32)cc1` (stereo partly drawn) [Example 13, 5-Chloro-1-(4-methoxybenzenesulfonyl)-3-(2-methoxy-5-pyrrolidin-1-ylmethylphenyl)-3-((S)-2-oxazol-2-yl-pyrrolidin-1-yl)-1,3-dihydroindol-2-one], the Ki is less than 10 nM.

`COc1ccc(S(=O)(=O)N2C(=O)C(c3cc(CN4CCCCC4)ccc3OC)(N3CCC[C@H]3c3ncco3)c3cc(Cl)ccc32)cc1` (stereo partly drawn) [Example 14, 5-Chloro-1-(4-methoxybenzenesulfonyl)-3-(2-methoxy-5-piperidin-1-ylmethylphenyl)-3-((S)-2-oxazol-2-yl-pyrrolidin-1-yl)-1,3-dihydroindol-2-one] registered a Ki of less than 10 nM.

Take `COc1ccc(S(=O)(=O)N2C(=O)C(c3ccc(CO)cc3OC)(N3CCC[C@H]3c3ncco3)c3cc(Cl)ccc32)cc1` (stereo partly drawn) [Example 15, 5-Chloro-3-(4-hydroxymethyl-2-methoxyphenyl)-1-(4-methoxybenzenesulfonyl)-3-((S)-2-oxazol-2-yl-pyrrolidin-1-yl)-1,3-dihydroindol-2-one]: the inhibitory constant (Ki) fell in the range of 10 to 100 nM.

`CNCc1ccc(C2(N3CCC[C@H]3c3ncco3)C(=O)N(S(=O)(=O)c3ccc(OC)cc3)c3ccc(Cl)cc32)c(OC)c1` (stereo partly drawn) [Example 16, 5-Chloro-1-(4-methoxybenzenesulfonyl)-3-(2-methoxy-4-methylaminomethylphenyl)-3-((S)-2-oxazol-2-yl-pyrrolidin-1-yl)-1,3-dihydroindol-2-one] came in with a Ki of less than 10 nM.

Regarding `COc1ccc(S(=O)(=O)N2C(=O)C(c3ccc(CN(C)C)cc3OC)(N3CCC[C@H]3c3ncco3)c3cc(Cl)ccc32)cc1` (stereo partly drawn) [Example 17, 5-Chloro-3-(4-dimethylaminomethyl-2-methoxyphenyl)-1-(4-methoxybenzenesulfonyl)-3-((S)-2-oxazol-2-yl-pyrrolidin-1-yl)-1,3-dihydroindol-2-one], the Ki was less than 10 nM.

For `CCN(C)Cc1ccc(C2(N3CCC[C@H]3c3ncco3)C(=O)N(S(=O)(=O)c3ccc(OC)cc3)c3ccc(Cl)cc32)c(OC)c1` (stereo partly drawn) [Example 18, 5-Chloro-3-{4-[(ethylmethylamino)methyl]-2-methoxyphenyl}-1-(4-methoxybenzenesulfonyl)-3-((S)-2-oxazol-2-yl-pyrrolidin-1-yl)-1,3-dihydroindol-2-one], the inhibition constant Ki was less than 10 nM.

`CCN(CC)Cc1ccc(C2(N3CCC[C@H]3c3ncco3)C(=O)N(S(=O)(=O)c3ccc(OC)cc3)c3ccc(Cl)cc32)c(OC)c1` (stereo partly drawn) [Example 19, 5-Chloro-3-(4-diethylaminomethyl-2-methoxyphenyl)-1-(4-methoxybenzenesulfonyl)-3-((S)-2-oxazol-2-yl-pyrrolidin-1-yl)-1,3-dihydroindol-2-one]: the Ki is less than 10 nM.

As for `CCCNCc1ccc(C2(N3CCC[C@H]3c3ncco3)C(=O)N(S(=O)(=O)c3ccc(OC)cc3)c3ccc(Cl)cc32)c(OC)c1` (stereo partly drawn) [Example 20, 5-Chloro-1-(4-methoxybenzenesulfonyl)-3-(2-methoxy-4-propylaminomethylphenyl)-3-((S)-2-oxazol-2-yl-pyrrolidin-1-yl)-1,3-dihydroindol-2-one], the Ki is less than 10 nM.

Molecule `COc1ccc(S(=O)(=O)N2C(=O)C(c3ccc(CN(C)C(C)C)cc3OC)(N3CCC[C@H]3c3ncco3)c3cc(Cl)ccc32)cc1` (stereo partly drawn) [Example 21, 5-Chloro-3-{4-[(isopropylmethylamino)methyl]-2-methoxyphenyl}-1-(4-methoxybenzenesulfonyl)-3-((S)-2-oxazol-2-yl-pyrrolidin-1-yl)-1,3-dihydroindol-2-one] came in with a Ki of less than 10 nM.
